Measured values reported in publication PMC9946977, “Identification of linderalactone as a natural inhibitor of SHP2 to ameliorate CCl4-induced liver fibrosis” (Frontiers in Pharmacology, 2023).

Legend:
[1] = system: TGF-β/Smad pathway; experiment: CCl4 mouse model: liver TGF-β/Smad signalling (real-time PCR, Western blot); type: in vivo, C57BL/6 mice
Description: C57BL/6 mice (20 ± 2 g) were obtained from Hangzhou Medical College Experimental Animal Center (Hangzhou, China). The animals were maintained under controlled temperature (22°C ± 1°C), humidity (50%), and light (12 h light/12 h dark). The animals were fed a standard laboratory diet and provided with free access to tap water. All animals received humane care according to institutional animal care guidelines approved by the Experimental Animal Ethical Committee of Hangzhou Medical College. Forty mice were randomly divided into six groups: (1) vehicle control (n = 7); (2) CCl4 model (n = 7); (3) CCl4 + LIN (20 mg/kg) (n = 7); (4) CCl4 + LIN (40 mg/kg) (n = 7); (5) LIN (40 mg/kg) (n = 7); and (6) CCl4 + silymarin (SIL) (200 mg/kg) (n = 5). LIN and SIL were dissolved in 0.5% CMC-Na solution. Mice were administered LIN or SIL (intragastric administration, i.g.) once per day and CCl4 (intraperitoneal injection, i.p.; mixed 1:3 in olive oil, 2 mL/kg) twice per week for 4 weeks. Mice in the vehicle control group received olive oil (i.p. twice a week, 4 weeks) and 0.5% CMC-Na (i.g. every day, 4 weeks). After treatment, the mice were sacrificed, and plasma and liver tissues were collected and further analysed.
Total RNA was extracted from liver tissues and LX-2 cells using the TRIzol reagent. cDNA was synthesised using a PrimeScript RT Master Mix kit. Real-time PCR was performed using SYBR Green premix according to the manufacturer’s instructions. Relative expression of target genes was normalised to actin, analysed by the delta-delta-CT method and given as a ratio compared with the vehicle control. Primer sequences used in this study are listed in Supplementary Material.
Liver proteins were isolated by using a lysis buffer containing 50 mM Tris-HCl (pH7.5), 150 mM NaCl, 1 mM EDTA, 20 mM NaF, 0.5% NP-40, 10% glycerol, 1 mM phenylmethylsulphonyl fluoride, 10 μg/mL aprotinin, 10 μg/mL leupeptin, and 10 μg/mL pepstatin. The supernatants were collected after centrifugation at 3,000 g for 10 min at 4°C, and the protein concentration of each sample was determined and normalised to the same protein concentration. Protein samples were separated by sodium dodecyl sulphate-polyacrylamide gel electrophoresis and transferred onto polyvinylidene fluoride membranes. The membranes were incubated with the indicated primary and secondary antibodies, and the proteins in the membranes were visualised using a chemiluminescence kit. TGF-® antibody (CST, 3711), Smad 2/3 antibody (CST, 8685), p-Smad 2/3 antibody (CST, 8828), anti-α-SMA antibody (Santa Cruz, SC-53142), vimentin antibody (ABclonal, A19607), desmin antibody (ABclonal, A3736), GAPDH antibody (Beyotime, AF0006), and SHP2 antibody (CST, 3397). […]

[2] = target: T1, SHP2-PTP WT (Homo sapiens, UniProt Q06124); experiment: BLI assay, wildtype SHP2-PTP; settings: 1:1 binding model
T1 construct: Human SHP2 PTP domain (A237–I529) expression constructs; His-tag; made in house; host or cells: E. coli BL21 (DE3)
T1 sequence (Q06124 237-529): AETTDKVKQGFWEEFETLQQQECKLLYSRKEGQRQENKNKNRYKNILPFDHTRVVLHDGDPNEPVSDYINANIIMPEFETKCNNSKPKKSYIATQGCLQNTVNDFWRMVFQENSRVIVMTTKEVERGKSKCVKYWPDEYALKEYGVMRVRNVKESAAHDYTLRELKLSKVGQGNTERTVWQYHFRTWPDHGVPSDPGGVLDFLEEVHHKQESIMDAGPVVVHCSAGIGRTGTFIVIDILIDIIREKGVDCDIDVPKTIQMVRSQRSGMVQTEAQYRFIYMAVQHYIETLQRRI
Description: The BLI assay was performed using a FortéBio Octet 96 system. To label the biotin group on SHP2 proteins, NHS-PEG12-Biotin […] was added to the purified SHP2-PTP solution […] at 1.5:1 ratio for 2 h at 4°C. The reaction mixture was then loaded onto a column (GENEMORE, #G-MM-IGT) to remove excess free biotin. The biotin-labelled-SHP2-PTP protein was loaded onto super streptavidin (SSA) sensors (#18-5057, Octet) in a buffer containing […] 25 mM HEPES, 150 mM NaCl, and 0.02% (v/v) Tween-20. After equilibrium, the kinetics of the LIN and SHP2-PTP association were analysed by soaking the SSA sensors in a compound solution with various LIN concentrations for 300 s (6.25, 12.5, 25, 50, 100, and 200 μM), followed by 300 s of dissociation in the same HEPES buffer. The equilibrium constant (KD) values were assessed using the FortéBio data analysis software by fitting the kinetic data using a 1:1 binding model.

[3] = system: LX-2 cells; experiment: LX-2 cells: fibrogenic gene expression and Smad2/3 phosphorylation; type: cell-based, human
Description: The LX-2 cell line was purchased from the Cell Bank Type Culture Collection of the Chinese Academy of Sciences (Shanghai, China). Cells were cultured in DMEM supplemented with 10% [v/v] foetal bovine serum, 2 mM glutamine, 100 U/ml penicillin, and […] streptomycin. SHP-2 and control siRNAs were obtained from Suzhou GenePharma Co., Ltd. (sense 5'-3': GAGAGAGGAAAGAGUAAAUTT; antisense 5'-3': AUUUACUCUUUCCUCUCUCTT). Transfection was performed according to the manufacturer’s instructions. Subsequent real-time PCR and western blotting were performed to analyse transfection efficiency.
Total RNA was extracted from liver tissues and LX-2 cells using the TRIzol reagent. cDNA was synthesised using a PrimeScript RT Master Mix kit. […] Relative expression of target genes was normalised to actin, analysed by the delta-delta-CT method and given as a ratio compared with the vehicle control. […]
Liver proteins were isolated by using a lysis buffer containing 50 mM Tris-HCl (pH7.5), 150 mM NaCl, 1 mM EDTA, 20 mM NaF, 0.5% NP-40, 10% glycerol, 1 mM phenylmethylsulphonyl fluoride, 10 μg/mL aprotinin, 10 μg/mL leupeptin, and 10 μg/mL pepstatin. The supernatants were collected after centrifugation at 3,000 g for 10 min at 4°C, and the protein concentration of each sample was determined and normalised to the same protein concentration. […]

Kd [2]: 666 µM
SMILES: C/C1=C\CCC2=C[C@@H](OC2=O)c2c(C)coc2C1 [LIN, linderalactone]
hepatic TGF-β protein expression ([1]; CCl4 mice, LIN 40 mg/kg, Western blot): reduced
hepatic TGF-β mRNA expression ([1]; CCl4 mice, LIN 40 mg/kg, real-time PCR): reduced
Smad2/3 phosphorylation in the liver ([1]; CCl4 mice, Western blot): significantly inhibited
expression level of SHP2 protein ([1]; liver (Figure 4D) and LX-2 cells (Figure S2), Western blot): do not affect
fibrogenic gene expression (e.g., ACTA2, VIM, TGF-β, FN1, DES, COL1A1) ([3]; 10 μM LIN, 24 h, qPCR): significantly decreased
phosphorylation level of smad2/3 ([3]; LIN 5 and 10 μM, Western blot): significant reduced
